Test results taken from patent publication US7504517B2, “Kv1.5 potassium channel inhibitors” (Wyeth, priority 2006, dated 2009).

What was measured:
[1] = target: T1, Kv1.5 (Homo sapiens, UniProt P22460); experiment: Kv1.5 Patch Clamp EP; assay type: cell-based; conditions: whole cell patch clamp; for IC50: HEK or LTK- cells, at least four concentrations, n=3
T1 construct: expressed in transfected cells; host or cells: HEK or LTK- cells
Description: The external solution is standard Tyrodes solution. […] Inhibition was measured at the end of the 1 second pulses and expressed relative to controls. Initial Kv1.5 inhibition is estimated by single point determinations done at 1 μM.

[2] = system: L-type calcium channels; experiment: FLIPR L-Type Calcium Channel Assay; assay type: cell-based, murine; conditions: HL-1 cells expressing endogenous L-type calcium channels; calcium influx after 20 mM KCl; read-out: L-type Ca^2+ IC50
How it was run: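 After a 15 min compound pre-incubation at 37 °C with 2.5 mM probenecid, L-type channels were opened by depolarising with 20 mM KCl (final). Fluorescence (488 nm excitation, 510–570 nm emission) was read for 5 min.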

[3] = target: HERG (Homo sapiens, UniProt Q12809); experiment: HERG Patch Clamp EP; conditions: for inhibition at 10 µM: human, HEK cells stably overexpressing HERG
Description: HERG currents are recorded by the whole cell mode of patch clamp electrophysiology as described by Hamill et al.^3 HERG is stably over expressed in HEK cells. Microelectrodes are pulled from borosilicate glass (TW150) and heat polished (tip resistance, 1.5 to 3 megaohms). The external solution is standard Tyrodes solution. The internal (microelectrode) solution contained: 110 mM KCl, 5 mM K2ATP, 5 mM K4BAPTA, 1 mM MgCl2 and 10 mM HEPES, adjusted to pH 7.2 with KOH. […] Compounds are prepared as 10-20 mM DMSO stocks and diluted to appropriate test concentrations. […] Inhibition of HERG is measured at the peak of the tail currents and expressed relative to controls. Initial HERG activity is estimated by single point determinations run at 10 μM. Concentration response curves are generated for appropriate compounds utilizing at least four concentrations and an n=3. Curve fitting and IC50 estimating are done using Graphpad software (Ver. 4). • 1.

[4] = 1.0 μM, single point, Kv1.5 stably over expressed in HEK or LTK- cells

T1 sequence (P22460 whole entry): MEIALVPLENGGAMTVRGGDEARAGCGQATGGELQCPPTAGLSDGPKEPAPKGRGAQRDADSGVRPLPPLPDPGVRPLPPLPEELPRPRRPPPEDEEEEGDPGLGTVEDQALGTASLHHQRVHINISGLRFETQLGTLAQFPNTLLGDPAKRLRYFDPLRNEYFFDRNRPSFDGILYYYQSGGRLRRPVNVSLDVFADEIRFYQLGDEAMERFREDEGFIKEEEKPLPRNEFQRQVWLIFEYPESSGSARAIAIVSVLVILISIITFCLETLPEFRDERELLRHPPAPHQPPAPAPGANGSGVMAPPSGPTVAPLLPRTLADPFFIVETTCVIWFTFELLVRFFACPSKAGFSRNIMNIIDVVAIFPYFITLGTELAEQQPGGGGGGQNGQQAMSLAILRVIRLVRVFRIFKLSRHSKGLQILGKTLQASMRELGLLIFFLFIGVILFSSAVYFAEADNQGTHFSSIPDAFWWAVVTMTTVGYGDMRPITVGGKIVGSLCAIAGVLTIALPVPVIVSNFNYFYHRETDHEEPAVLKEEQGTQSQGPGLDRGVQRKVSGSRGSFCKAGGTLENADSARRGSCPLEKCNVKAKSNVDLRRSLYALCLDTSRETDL
Chain of HERG (Q12809 whole entry): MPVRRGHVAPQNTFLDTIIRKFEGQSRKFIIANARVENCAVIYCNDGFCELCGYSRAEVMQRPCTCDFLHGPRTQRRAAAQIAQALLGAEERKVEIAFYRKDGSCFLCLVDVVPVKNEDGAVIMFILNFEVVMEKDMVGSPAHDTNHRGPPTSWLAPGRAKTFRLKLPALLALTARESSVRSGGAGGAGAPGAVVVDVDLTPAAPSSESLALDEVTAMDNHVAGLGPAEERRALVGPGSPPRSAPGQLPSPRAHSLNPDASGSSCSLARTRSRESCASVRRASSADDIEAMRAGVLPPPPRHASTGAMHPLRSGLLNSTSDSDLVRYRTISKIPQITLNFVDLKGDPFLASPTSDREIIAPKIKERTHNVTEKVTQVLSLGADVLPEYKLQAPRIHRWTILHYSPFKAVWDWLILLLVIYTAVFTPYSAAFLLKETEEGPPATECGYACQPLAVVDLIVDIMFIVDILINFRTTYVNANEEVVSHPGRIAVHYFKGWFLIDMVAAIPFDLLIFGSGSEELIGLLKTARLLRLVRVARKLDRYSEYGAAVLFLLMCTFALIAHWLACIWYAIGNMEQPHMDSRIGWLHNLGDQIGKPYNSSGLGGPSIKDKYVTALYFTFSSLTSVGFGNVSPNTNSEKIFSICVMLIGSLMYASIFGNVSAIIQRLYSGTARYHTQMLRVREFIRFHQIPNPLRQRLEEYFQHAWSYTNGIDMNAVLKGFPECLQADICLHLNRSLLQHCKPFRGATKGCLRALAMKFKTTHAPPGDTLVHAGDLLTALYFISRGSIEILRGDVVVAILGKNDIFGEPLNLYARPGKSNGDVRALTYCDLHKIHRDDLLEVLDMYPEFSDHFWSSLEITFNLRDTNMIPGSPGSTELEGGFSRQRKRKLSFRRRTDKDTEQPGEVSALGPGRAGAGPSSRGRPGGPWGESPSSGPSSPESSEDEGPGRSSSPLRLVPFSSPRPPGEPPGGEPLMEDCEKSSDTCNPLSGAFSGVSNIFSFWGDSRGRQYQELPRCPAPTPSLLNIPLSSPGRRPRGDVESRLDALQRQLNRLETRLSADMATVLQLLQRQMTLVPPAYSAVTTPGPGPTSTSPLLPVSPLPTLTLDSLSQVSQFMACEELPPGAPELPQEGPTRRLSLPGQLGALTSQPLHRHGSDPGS

Structure (SMILES) | inhibition at 1 µM [1, 4] | IC50 [1] | IC50 [2] | Kv1.5% inhibition @ 1.0 μM [1, 4] | IC50 [3] | inhibition at 10 µM [3] | HERG % Inhib. @ 10 μM ([3]; 10 μM, single point, whole cell patch clamp, HERG stably over expressed in HEK cells, peak tail current)
COc1ccc(CCN2C(=O)N(NS(=O)(=O)CS(C)(=O)=O)CC2c2ccc(C3CC3)cc2)cc1 (stereo not drawn) [Compound 61, 1-[(Methylsulfonylmethyl)sulfonyl]amino-3-[2-(4-methoxyphenyl)ethyl]-4-(4-Cyclopropylphenyl)-2-imidazolidinone] | 85% | – | 25 µM | – | – | 28% | –
CC(C)(C)c1ccc(C2CN(NS(C)(=O)=O)C(=O)N2CCCc2ccccc2)cc1 (stereo not drawn) [Compound 47, 1-(Methylsulfonylamino)-3-(3-phenylpropyl)-4-[4-(tert-butyl)phenyl]-2-imidazolidinone] | 73% | – | 26 µM | – | – | 65% | –
COc1ccc(CCN2C(=O)N(NS(C)(=O)=O)CC2c2ccc(OC)c(C)c2)cc1 (stereo not drawn) [Compound 12, 1-(Methylsulfonylamino)-3-[2-(4-methoxyphenyl)ethyl]-4-[(3-methyl-4-methoxy)phenyl]-2-imidazolidinone] | 82% | – | 38 µM | – | – | 19% | –
COc1ccc(CCN2C(=O)N(NS(=O)(=O)CC(=O)NCC3CC3)CC2c2ccc(OC)cc2)cc1 (stereo not drawn) [Compound 57, 1-[[2-[(Cyclopropylmethyl)amino]-2-oxoethyl]sulfonylamino]-3-[2-(4-methoxy-phenyl)ethyl]-4-(4-methoxyphenyl)-2-imidazolidinone] | 66% | 0.631 µM | 30 µM | – | 12.4 µM | 12% | –
COc1ccc(CCN2C(=O)N(NS(=O)(=O)CCS(C)(=O)=O)CC2c2ccc(C3CC3)cc2)cc1 (stereo not drawn) [Compound 114, N-{4-(4-cyclopropylphenyl)-3-[2-(4-methoxyphenyl)ethyl]-2-oxoimidazolidin-1-yl}-2-(methylsulfonyl)ethanesulfonamide] | 75% | – | 15 µM | – | – | 55% | –
COc1ccc(C2CN(NS(=O)(=O)Cc3cccnc3)C(=O)N2CCCc2ccccc2)cc1 (stereo not drawn) [Compound 101, 1-[(Pyridin-3-yl)methylsulfonyl]amino-3-(3-phenylpropyl)-4-(4-methoxyphenyl)-2-imidazolidinone] | 81% | – | 19 µM | – | – | 24% | –
COc1ccc(CCCN2C(=O)N(NS(C)(=O)=O)CC2c2ccc(OC)cc2)cc1 (stereo not drawn) [Compound 49, 1-(Methylsulfonylamino)-3-[3-(4-methoxyphenyl)propyl]-4-[(4-methoxy)-phenyl]-2-imidazolidinone] | 76% | 0.466 µM | 23 µM | – | 11.4 µM | 25% | –
COc1ccc(CCN2C(=O)N(NS(C)(=O)=O)C[C@@H]2c2ccc(OC)cc2)cc1 [Compound 107, N-{(4S)-4-(4-methoxyphenyl)-3-[2-(4-methoxyphenyl)ethyl]-2-oxoimidazolidin-1-yl}methanesulfonamide] | 41% | 1.1 µM | 39 µM | – | 54 µM | – | –
COc1ccc(CCN2C(=O)N(NS(N)(=O)=O)CC2c2ccc(C)c(C)c2)cc1 (stereo not drawn) [Compound 8, 1-(Aminosulfonylamino)-3-[2-(4-methoxyphenyl)ethyl]-4-(3,4-dimethylphenyl)-2-imidazolidinone] | 90% | – | 15 µM | – | – | 16% | –
COc1ccc(CCN2C(=O)N(NS(C)(=O)=O)CC2c2ccc3c(c2)OCCO3)cc1 (stereo not drawn) [Compound 17, 1-(Methylsulfonylamino)-3-[2-(4-methoxyphenyl)ethyl]-4-[(2,3-dihydro-benzo[1,4]dioxin-6-yl)]-2-imidazolidinone] | 89% | – | 40 µM | – | – | 22% | –
COc1ccc(CCN2C(=O)N(NS(=O)(=O)Cc3cccnc3)CC2c2ccc(C)cc2)cc1 (stereo not drawn) [Compound 65, 1-[(Pyridin-3-yl)methylsulfonyl]amino-3-[(4-methoxyphenyl)ethyl]-4-(4-methylphenyl)-2-imidazolidinone] | 88% | – | 31 µM | – | – | 38% | –
COc1ccc(CCN2C(=O)N(NS(C)(=O)=O)CC2c2ccc(C)c(OC)c2)cc1 (stereo not drawn) [Compound 13, 1-(Methylsulfonylamino)-3-[2-(4-methoxyphenyl)ethyl]-4-[(3-methoxy-4-methyl)phenyl]-2-imidazolidinone] | 83% | – | 27 µM | – | – | 10% | –
COc1ccc(CCN2C(=O)N(NS(=O)(=O)CF)CC2c2ccc(OC)cc2)cc1 (stereo not drawn) [Compound 35, 1-(Fluoromethylsulfonylamino)-3-[2-(4-methoxyphenyl)ethyl]-4-(4-methoxy-phenyl)-2-imidazolidinone] | 71% | – | 30 µM | – | – | 14% | –
COc1ccc(CCN2C(=O)N(N(CCn3ccnc3)C(=O)OC(C)(C)C)CC2c2ccc(C(C)(C)C)cc2)cc1 (stereo not drawn) [Compound 146, tert-butyl {4-(4-tert-butylphenyl)-3-[2-(4-methoxyphenyl)ethyl]-2-oxoimidazolidin-1-yl}[2-(1H-imidazol-1-yl)ethyl]carbamate] | 83% | – | 15 µM | – | – | 86% | –
COc1ccc(CCN2C(=O)N(NS(C)(=O)=O)CC2c2ccc(OC(F)(F)F)cc2)cc1 (stereo not drawn) [Compound 27, 1-[(Methylsulfonyl)amino]-3-[2-(4-methoxyphenyl)ethyl]-4-(4-trifluoro-methoxyphenyl)-2-imidazolidinone] | – | – | 19 µM | 56% | – | – | 63%
COc1ccc(CCN2C(=O)N(NS(=O)(=O)CC(N)=O)CC2c2ccc(C3CC3)cc2)cc1 (stereo not drawn) [Compound 52, 1-[(2-Amino-2-oxoethyl)sulfonylamino]-3-[2-(4-methoxyphenyl)ethyl]-4-(4-cyclopropylphenyl)-2-imidazolidinone] | 80% | – | 16 µM | – | – | 29% | –

The next compounds have a lower IC50 [2] than those just listed; values first:

inhibition at 1 µM [1, 4] | IC50 [1] | IC50 [2] | Kv1.5% inhibition @ 1.0 μM [1, 4] | Structure (SMILES) | IC50 [3] | inhibition at 10 µM [3] | HERG % Inhib. @ 10 μM ([3]; 10 μM, single point, whole cell patch clamp, HERG stably over expressed in HEK cells, peak tail current)
77% | 0.453 µM | 10.6 µM | – | COCCN(CCOC)C(=O)CS(=O)(=O)NN1CC(c2ccc(C3CC3)cc2)N(CCc2ccc(OC)cc2)C1=O (stereo not drawn) [Compound 60, 1-[[2-[(Bis(methoxyethyl)amino)]-2-oxoethyl]sulfonylamino]-3-[2-(4-methoxy-phenyl)ethyl]-4-(4-cyclopropylphenyl)-2-imidazolidinone] | 7.4 µM | 44% | –
96% | 0.231 µM | 9 µM | – | COc1ccc(CCCN2C(=O)N(NS(C)(=O)=O)CC2c2ccc(C3CC3)cc2)cc1 (stereo not drawn) [Compound 48, 1-(Methylsulfonylamino)-3-[3-(4-methoxyphenyl)propyl]-4-[(4-cyclopropyl)-phenyl]-2-imidazolidinone] | 3.6 µM | 70% | –
93% | – | 4.3 µM | – | COc1ccc(CCN2C(=O)N(NS(=O)(=O)Cc3ccccc3)CC2c2ccc(C)c(C)c2)cc1 (stereo not drawn) [Compound 43, 1-[(Phenylmethyl)sulfonylamino]-3-[2-(4-methoxyphenyl)ethyl]-4-(3,4-dimethyl-phenyl)-2-imidazolidinone] | – | 2% | –
82% | 0.514 µM | 10 µM | – | COc1ccc(CCN2C(=O)N(NS(C)(=O)=O)CC2c2ccc(C(C)(C)C)cc2)cc1 (stereo not drawn) [Compound 24, 1-(Methylsulfonylamino)-3-[(4-methoxyphenyl)ethyl]-4-[4-(tert-butyl)phenyl]-imidazolidinone] | 6.4 µM | 74% | –
86% | – | 1.9 µM | – | COc1ccc(CCN2C(=O)N(NCc3cnc4ccccc4c3)CC2c2ccc(C)c(C)c2)cc1 (stereo not drawn) [Compound 96, 4-(3,4-Dimethylphenyl)-3-[2-(4-methoxyphenyl)ethyl]-1-[(quinolin-3-ylmethyl)-amino]-2-imidazolidinone] | – | 87% | –
62% | 0.658 µM | 7 µM | – | COc1ccc(CCN2C(=O)N(NC(=O)C3CC3)CC2c2ccc(C(C)(C)C)cc2)cc1 (stereo not drawn) [Compound 73, 1-Cyclopropanecarbonylamino-4-[4-(tert-butyl)phenyl]-3-[2-(4-methoxy-phenyl)ethyl]-2-imidazolidinone] | – | 56% | –
80% | – | 2 µM | – | COc1ccc(CCCN2C(=O)N(N)CC2c2ccc(C(C)(C)C)cc2)cc1 (stereo not drawn) [Compound 119, 1-amino-4-(4-tert-butylphenyl)-3-[3-(4-methoxyphenyl)propyl]imidazolidin-2-one] | – | 70% | –
85% | – | 7.6 µM | – | COc1ccc(CCN2C(=O)N(NCc3ccc(F)cc3)CC2c2ccc(C)c(C)c2)cc1 (stereo not drawn) [Compound 89, 1-[(4-Fluorophenylmethyl)amino]-3-[2-(4-methoxyphenyl)ethyl]-4-(3,4-dimethylphenyl)-2-imidazolidinone] | – | 98% | –
95% | – | 13 µM | – | COc1ccc(CCN2C(=O)N(NS(C)(=O)=O)CC2Cc2ccc(C(C)(C)C)cc2)cc1 (stereo not drawn) [Compound 11, 1-(Methylsulfonylamino)-3-[2-(4-methoxyphenyl)ethyl]-4-[(4-tert-butyl)benzyl]-2-imidazolidinone] | – | 45% | –
67% | – | 13 µM | – | COc1ccc(CCN2C(=O)N(NCc3cccnc3)CC2c2ccc(C)c(C)c2)cc1 (stereo not drawn) [Compound 94, 1-[(Pyridin-3-ylmethyl)amino]-3-[2-(4-methoxyphenyl)ethyl]-4-(3,4-dimethylphenyl)-2-imidazolidinone] | – | 35% | –
